The text below walks through data of patent US20240197760A1, “ACTIVATORS OF INTEGRATED STRESS RESPONSE PATHWAY FOR PROTECTION AGAINST FERROPTOSIS” (Burke Neurological Institute, priority 2021, published 2024).

Entries after “also recorded” stand apart in the source; their conditions may differ.

The test system of series [1] is mouse primary neurons. As to the kind of experiment: Live-dead cell viability assay (calcein-AM / ethidium homodimer). The conditions noted are these: 1 mM to 15 mM, 24 h, cultured mouse primary neurons. It is filed as cell-based.
Series [2] concerns Trib3, Chac1, Bip. As to the kind of experiment: Expression of ATF4 target genes and chaperone Bip in mouse primary neurons. The format is cell-based. The following applies: 6 h, mouse primary neurons. The protocol: Total RNA was extracted from primary cortical neurons using NucleoSpin RNA II Kit (Clontech, Catalog number—740955-250). Thereafter, using the Taqman RNA-to-Ct, one step kit (Thermo Fisher Scientific, catalog number—4392938) and following the manufacturer's instructions, […] from each sample was mixed with the Taqman® Gene Expression Master Mix and Taqman® Gene Expression Assays for Creb1 (Catalog number—Mm00501607_m1), Bdnf (Catalog number—Mm04230607_s1), Rbbp4 (Catalog number—Mm00771401_g1), Bip (Catalog number—Mm00517691_m1), Trib3 (Catalog number—Mm00454879_m1), and Chac1 (Catalog number—Mm00509926_m1) with FAM labelled probe and Actin with VIC labelled probe all from Thermo Fisher Scientific on an Applied Biosystems 7500 Fast Real Time PCR System. For assessing gene expression of various specific Bdnf exons in mouse primary neurons, two step qPCR was used. Total RNA from primary cortical neurons was extracted using NucleoSpin RNA II Kit (Clontech, Catalog number—740955-250) and a total of 1.5 μg RNA was used to synthesize cDNA with the SuperScript® III First-Strand Synthesis System (Thermo Fisher Scientific, Catalog number—18080051). Quantitative RT-PCR was then performed using SYBR green (Thermo Fisher Scientific, Catalog number—4309155) on an Applied Biosystems 7500 Fast Real Time PCR System. Quantitative levels for all genes were normalized to the housekeeping gene GAPDH and expressed relative to the relevant control samples as fold change. The sequences of primers used in this part of the study were as follows: Bdnf I forward: […] (SEQ ID NO:9) and Bdnf I reverse: […] (SEQ ID NO:10); Bdnf II forward: […] (SEQ ID NO:11) and Bdnf II reverse: […] (SEQ ID NO:12); Bdnf IV forward #2: […] (SEQ ID NO:13) and Bdnf IV reverse #2: […] (SEQ ID NO:14); Bdnf VI forward: […] (SEQ ID NO:15) and Bdnf VI reverse: […] (SEQ ID NO:16); Bdnf VII forward: […] (SEQ ID NO:17) and Bdnf VII reverse: […] (SEQ ID NO:18) Bdnf IX forward: […] (SEQ ID NO:19) and Bdnf IX reverse: […] (SEQ ID NO:20); Gapdh forward #2: […] (SEQ ID NO:21) and Gapdh reverse #2: […] (SEQ ID NO: 22).

Series [3] has as its system rats. The conditions noted are these: dietary supplementation in rats; cited from earlier work.

Turning to `OC[C@H]1OC(O)C[C@@H](O)[C@@H]1O` (stereo partly drawn) [2-DG, (4R,5S,6R)-6-(hydroxymethyl)oxane-2,4,5-triol], the “toxicity / neuronal cell death in live-dead assay” value in series [1] is on record as “no toxicity”. In series [2], the “expression of ATF4 target genes Trib3 and Chac1” value was “enhanced expression; also recorded: Increase”. Moreover, in series [3], the “physiological effects (insulin level, body temperature, blood pressure, heart rate, plasma glucose level, stress adaptation)” value is listed as “mimic the physiological effects of calorie restriction”.
